Data reported in patent EP4583874B1, “MULTITARGET NUCLEAR RECEPTOR LIGANDS BASED ON 2-(4-(QUINOLIN-2-YLOXY)PHENOXY)PROPANOIC ACID AND 2-(4-(QUINOXALIN-2-YLOXY)PHENOXY)PROPANOIC ACID FOR THE TREATMENT OF METABOLIC AND LIVER DISEASES” (CHARLES UNIVERSITY, FACULTY OF PHARMACY IN HRADEC KRALOVE, priority 2022, dated 2024).

Assays:
human PPARα = molecular target: T1, human PPARα (Homo sapiens, UniProt Q07869); test: PPARα responsive luciferase reporter gene assay (pGAL4-PPARα / pGL5-UAS 9x) in HepG2 cells; format: cell-based; details: relative activation to fenofibrate 10 µM (100%), HepG2, 24 h, negative value indicates inverse agonism
T1 construct: DNA constructs encoding human LBD domains of human PPARα, PPARγ, of LXRα (pGAL4-PPARα, pGAL4-PPARγ, pGAL4-LXRα); expressed in transfected cells; host or cells: HepG2
T1 sequence (Q07869 239-466 limits assumed): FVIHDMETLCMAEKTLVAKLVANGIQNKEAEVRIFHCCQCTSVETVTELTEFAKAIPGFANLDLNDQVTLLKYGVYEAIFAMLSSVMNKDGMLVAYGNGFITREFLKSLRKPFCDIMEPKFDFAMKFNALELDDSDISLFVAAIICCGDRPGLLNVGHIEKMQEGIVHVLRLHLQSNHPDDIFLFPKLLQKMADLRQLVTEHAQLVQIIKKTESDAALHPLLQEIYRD
From the text: Bezafibrate, GW7647 and WY14643 are known PPARα ligands. […] GW3965 is known high-affinity LXRα ligand. […]
In HepG2 cells, luciferase gene reporter assays have been performed with the transiently transfected reporter gene luciferase construct with the UAS yeast binding site interacting with GAL4 protein (pGL5-UAS 9x, Promega). DNA constructs encoding human LBD domains of human PPARα, PPARγ, of LXRα (pGAL4-PPARα, pGAL4-PPARγ, pGAL4-LXRα) have been cotransfected with the reporter construct. For FXR, FXRE-luc construct with FXR response elements upstream of Firefly luciferase has been used together with an expression construct for human FXR for HepG2 cells transfection. HepG2 cells were then treated with compounds of the invention for 24 h.

[1] = system: C57BL/6J mice fed with high-fat diet; test: Proof-of-concept study in mice fed with high-fat diet, liver mRNA expression by RT-qPCR; format: in vivo; details: 10 mg/kg p.o. daily for three weeks, HFD mice
Procedure: The compound 37 has been applied daily (10 mg/kg) via p.o. gavage for three weeks to wild-type C57BL/6J mice fed with high-fat diet (HFD) for 24 weeks. After 24 h from the last application, mice were sacrificed, and live samples collected on dry ice for total RNA isolation. RT-qPCR experiments have been performed with TaqMan probes and expression has been quantified using a reference gene (Gapdh) and delta-delta method. Data represents fold up or downregulation in mRNA expression for tested genes related to the expression in vehicle-treated control animals. * - denotes statistically significant (p<0.05) up-regulation in animals treated with the compound of EXAMPLE 37 in comparison to animals fed with HFD only (n ≥ 10 in each groups). ^f - statistically significant effect of HFD diet on a gene expression. […]
Expressions of NR target genes mRNAs in livers of mice or in 3D cultured (spheroids) primary human hepatocytes have been performed using TaqMan probes-based RT-qPCR after isolation of total RNA by Trizol® (ThermoFischer Scientific) reagent and reverse transcription synthesis of cDNA in Quant Studio cycler. […] Delta-delta method and Gapdh or TATA-box binding protein (TBP) housekeeping genes were used for relative quantification. Data are expressed as fold up-/down-regulation compared to vehicle-treated samples/mice.

C57BL/6J mice = test: Pilot study in mice, liver mRNA expression by RT-qPCR; format: in vivo; details: 3x 30 mg/kg p.o. gavage, liver 24 h after last application, vs vehicle
Procedure: Compounds 35 and 37 have been applied three times after 24 h (3x 30 mg/kg) via p.o. gavage to wild-type C57BL/6J mice. After 24 h from the last application, mice were sacrificed, and live samples collected on dry ice for total RNA isolation. RT-qPCR experiments have been performed with TaqMan probes and expression has been quantified using a reference gene (beta-actin and Gapdh) and delta-delta method. Data represents fold up or downregulation in mRNA expression for tested genes related to the expression in vehicle-treated control animals. * - statistically significant (p<0.05) up- or down- regulation in animals treated with tested compounds (n=4).
In the pilot study, compounds of the invention 37 and 35 were applied by per os probe (gavage) to male mice of age 15 weeks (n=4 per group) three times (3 x 30 mg/kg b.w.) in 1%PEG300/methylcellulose solution (compounds of EXAMPLE 37or 35). Livers were sampled 24 hours after application into liquid nitrogen for total RNA insolation and for qRT-PCR analysis (Quantstudio 7 HT Fast Real-Time PCR System).
Expressions of NR target genes mRNAs in livers of mice or in 3D cultured (spheroids) primary human hepatocytes have been performed using TaqMan probes-based RT-qPCR after isolation of total RNA by Trizol® (ThermoFischer Scientific) reagent and reverse transcription synthesis of cDNA in Quant Studio cycler. Real-time qPCR TaqMan probes have been purchased prom ThermoFisher scientific (Cat. No. 4351372 and 433118). Delta-delta method and Gapdh or TATA-box binding protein (TBP) housekeeping genes were used for relative quantification. Data are expressed as fold up-/down-regulation compared to vehicle-treated samples/mice.

Emax at 10 µM (human PPARα): 8% | Cyp7a1 expression in the mouse liver (C57BL/6J mice): down-regulates
Structure (SMILES): C[C@@H](Oc1ccc(Oc2ccc3c(Cl)cccc3n2)cc1)C(=O)O [compound 37, (R)-2-(4-((5-Chloroquinolin-2-yl)oxy)phenoxy)propanoic acid]
key genes of gluconeogenesis [1]: down-regulated | key genes involved in fatty acid (beta) oxidation (Ucp2, Hadha and Hadha) in mouse livers ([1]; vs HFD only): up-regulates | Fasn gene expression in the mouse liver (C57BL/6J mice): down-regulate | Pck1 gene expression in the mouse liver (C57BL/6J mice): down-regulate | cholesterol efflux transporters Abcg5/8 expression in the mouse liver (C57BL/6J mice): down-regulates | key protein involved in fatty acid (beta) oxidation, mRNA expression in the mouse liver (C57BL/6J mice): up-regulate
